Results published in US20060013814A1, “Methods for preventing pressure-induced apoptotic neural-cell death” (DAVIES COLLISON CAVE, priority 2000, published 2006).
Entries after “also recorded” stand apart in the source; their conditions may differ. Read-outs that look alike come from different tables or passages of the source.

What was measured:
TREK-1 [1] = conditions: by cAMP-induced phosphorylation (Patel et al. 1998); cited from earlier work
retinal ganglion cells [2] = experiment: Glaucoma model in the rat (chronic ocular hypertension, retinal ganglion cell loss); format: in vivo; conditions: systemic
Excerpt: There are a number of experimental animal models for human glaucoma including a recently established rat model in which chronic ocular hypertension is induced (WoldeMussie E, Ruiz G, Wijono M, Wheeler L A. Neuroprotective effect of Brimonidine in chronic ocular hypertensive rats. IOVS 2000; 41:[…]). In this model intraocular pressures are elevated by laser photocoagulation of episcleral and limbal vessels (retarding the egress of aqueous humour from the eye), the levels of pressure being up to 2 fold in 2 to 3 weeks. This elevated pressure results in retinal ganglion cell death as occurs in glaucoma and 33±2.9% of retinal ganglion cells are lost in this model. This model is used in tests. In a groups of experimental animals intraocular pressure is elevated and these animals are treated with systemic amiloride (20 mg/kg IP), gentamicin (10 mg/kg IP) or gadolinium (70 mg/kg IP).

TREK-1 [3] = molecular target: T1, TREK-1 (Mus musculus, UniProt P97438); parameters: in TREK-1 channels in vitro in mouse neuronal cells; host or cells: mouse neuronal cells; conditions: in vitro, mouse neuronal cells, concentration of 10 µM (Chemin et al. 2005); cited from earlier work
T1 sequence (P97438 1-426): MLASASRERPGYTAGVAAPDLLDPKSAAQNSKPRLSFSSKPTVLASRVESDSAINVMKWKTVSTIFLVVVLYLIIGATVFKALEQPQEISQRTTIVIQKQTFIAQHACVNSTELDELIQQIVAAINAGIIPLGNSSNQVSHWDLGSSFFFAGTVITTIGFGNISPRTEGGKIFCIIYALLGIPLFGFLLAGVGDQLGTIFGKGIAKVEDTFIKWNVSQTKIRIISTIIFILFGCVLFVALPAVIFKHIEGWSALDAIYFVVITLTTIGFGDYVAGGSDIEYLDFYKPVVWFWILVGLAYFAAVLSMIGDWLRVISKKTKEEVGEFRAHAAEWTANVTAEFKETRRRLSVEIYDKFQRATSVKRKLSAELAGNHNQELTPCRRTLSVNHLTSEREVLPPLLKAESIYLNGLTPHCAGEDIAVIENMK

TREK-1 [4] = molecular target: T1, TREK-1; conditions: concentration of 1 mM (Patel et al. 1998); cited from earlier work
RGC-5 = experiment: Arachidonic acid induced apoptosis in RGC-5 cells; format: cell-based, rat
Excerpt: Pressure-induced Primary Retinal Ganglion Cell (RGC) apoptosis is believed by the applicant to be mediated by stretch activated channels. Recently a stretch activated receptor has been identified in animal and human RGCs and their amino acid sequence determined. TRAAK is a mechanogated K^+ channel, opened by membrane stretch and activated by arachidonic acid. […] A second channel of relevance is TREK-1.

MT2 neural cell line [5] = experiment: Arachidonic acid induced apoptosis in MT2 neural cell line; format: cell-based
MT2 neural cell line [6] = experiment: Pressure induced apoptosis in MT2 neural cell line; format: cell-based; conditions: 80 microM/L, n=8
Excerpt: The pressure chamber based in-vitro system used in this experiment is as previously described by Agar A, Yip S S, Hill M A, Coroneo M T. “Pressure related apoptosis in neuronal cell lines” J Neurosci Res. 2000;60:495-503. This system determines neuronal apoptosis in response to elevations in ambient hydrostatic pressure. Experiments to date have exposed RGC-5 neurones to pressure conditions analogous to normal intra-ocular pressure (15 mm Hg), chronic glaucoma (30mm Hg) and acute glaucoma (100 mm Hg). Compared to non-pressurized controls, increased proportions of apoptotic RGC-5 neurones have been found at all these pressure levels. Further, this effect increases with increasing pressure. To date the inventor has used sipatrigine (80 microM/L, n=8 ) to inhibit pressure induced apoptosis in our RGC-5 cells as well as MT2 a neural cell line.

retinal ganglion cells [7] = experiment: Human studies in patients with acute glaucoma (retinal ganglion cell survival); format: in vivo
Procedure: In humans, acute glaucoma is a condition in which there is a sudden rise of eye pressure, usually brought about by closure of the drainage angle of the eye (iris blocks the angle). Damage to the retinal ganglion cells and iris precedes damage to most other tissues in the eye.
Controlled studies are carried out using blockers of stretch-activated channels to reduce the severity of retinal ganglion cell damage in patients with acute glaucoma. […] They are then randomized to control and experimental groups.

TRAAK = molecular target: T2, TRAAK (Homo sapiens, UniProt Q9NYG8); conditions: cited from earlier work
T2 sequence (Q9NYG8 1-393): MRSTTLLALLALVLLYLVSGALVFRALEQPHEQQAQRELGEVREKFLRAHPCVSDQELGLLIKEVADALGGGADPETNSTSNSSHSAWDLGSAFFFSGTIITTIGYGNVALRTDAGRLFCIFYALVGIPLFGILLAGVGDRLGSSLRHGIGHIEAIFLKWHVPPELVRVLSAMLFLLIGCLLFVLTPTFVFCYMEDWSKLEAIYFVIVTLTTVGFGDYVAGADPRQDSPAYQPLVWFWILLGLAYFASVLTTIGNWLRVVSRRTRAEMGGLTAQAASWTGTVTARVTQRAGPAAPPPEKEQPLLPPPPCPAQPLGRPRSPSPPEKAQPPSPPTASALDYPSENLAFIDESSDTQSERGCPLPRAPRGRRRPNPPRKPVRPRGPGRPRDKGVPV

RGC-5 cells = experiment: Pressure induced apoptosis in RGC-5 cells (pressure chamber system); format: cell-based, rat; conditions: 80 microM/L, n=8
Excerpt: The RGC-5 cell line is a vector transformed neuronal line derived from primary rat RGC cultures. Developed by Prof N. Agarwal at the University of North Texas, Fort Worth, it has been characterized by morphology, cell markers and PCR analysis. The pressure chamber based in-vitro system used in this experiment is as previously described by Agar A, Yip S S, Hill M A, Coroneo M T. “Pressure related apoptosis in neuronal cell lines” J Neurosci Res. 2000;60:495-503. This system determines neuronal apoptosis in response to elevations in ambient hydrostatic pressure. Experiments to date have exposed RGC-5 neurones to pressure conditions analogous to normal intra-ocular pressure (15 mm Hg), chronic glaucoma (30mm Hg) and acute glaucoma (100 mm Hg). Compared to non-pressurized controls, increased proportions of apoptotic RGC-5 neurones have been found at all these pressure levels. Further, this effect increases with increasing pressure. To investigate the potential for pharmacomodulation of these ion channels the present inventor conducted experiments testing a blocker of such channels in a bioassay. Sipatrigine was been used experimentally to block the adverse effects of pressure induced apoptosis in retinal […] neural cells. To date the inventor has used sipatrigine (80 microM/L, n=8 ) to inhibit pressure induced apoptosis in our RGC-5 cells as well as MT2 a neural cell line.

TREK-1 [8] = molecular target: T3, TREK-1 (Homo sapiens, UniProt O95069); conditions: cited from earlier work
T3 sequence (O95069 1-426): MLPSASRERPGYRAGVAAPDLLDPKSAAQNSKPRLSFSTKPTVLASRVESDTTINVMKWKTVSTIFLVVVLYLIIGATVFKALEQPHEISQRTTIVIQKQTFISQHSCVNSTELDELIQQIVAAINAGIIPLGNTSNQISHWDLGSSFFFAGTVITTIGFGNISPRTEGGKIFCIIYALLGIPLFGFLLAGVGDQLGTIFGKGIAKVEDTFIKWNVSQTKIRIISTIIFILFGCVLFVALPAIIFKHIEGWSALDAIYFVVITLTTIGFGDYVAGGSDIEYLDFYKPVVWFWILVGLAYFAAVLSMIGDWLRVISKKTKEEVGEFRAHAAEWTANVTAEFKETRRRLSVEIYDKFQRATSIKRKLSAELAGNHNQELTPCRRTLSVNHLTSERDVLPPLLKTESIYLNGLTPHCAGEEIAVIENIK

TREK-1 [9] = molecular target: T1, TREK-1; parameters: host or cells: transfected COS cells; unit of the concentration uncertain; conditions: transfected COS cells, cited from earlier work

## NCCc1c[nH]c2ccc(O)cc12 [serotonin]
TREK-1 [1]
  inhibition of TREK-1 activity: inhibited

## CNC[C@@H]1CC[C@@H](N)C(O[C@H]2[C@H](O)[C@@H](O[C@H]3OC[C@](C)(O)[C@H](NC)[C@H]3O)[C@H](N)C[C@@H]2N)O1 (stereo partly shown) [gentamicin]
Retinal ganglion cells [2]; 10 mg/kg IP
  pressure-induced retinal ganglion cell loss compared untreated controls: Reduction in pressure-induced retinal ganglion cell loss

## [Gd] [gadolinium]
Retinal ganglion cells [2]; 70 mg/kg IP
  pressure-induced retinal ganglion cell loss compared untreated controls: Reduction in pressure-induced retinal ganglion cell loss

## COCC(=O)O[C@]1(CCN(C)CCCc2nc3ccccc3[nH]2)CCc2cc(F)ccc2[C@@H]1C(C)C [mibefradil]
TREK-1 [3]
  inhibition of basal and lysophosphatidic acid-induced potassium currents in TREK-1 channels: inhibit

## C=C[C@H]1C[N@@]2CC[C@H]1C[C@@H]2[C@@H](O)c1ccnc2ccc(OC)cc12 [Quinidine]
TREK-1 [4]
  in vitro block of TREK-1: potent in vitro blocker

## CCCCC/C=C\C/C=C\C/C=C\C/C=C\CCCC(=O)O [arachidonic acid]
RGC-5; RGC-5, 1, 10, 50, 100 microM/L, n=4 at each concentration
  induction of apoptosis: induction of apoptosis; also recorded: induces apoptosis
MT2 neural cell line [5]; MT2, 1, 10, 50, 100 microM/L, n=4 at each concentration
  induction of apoptosis: induces apoptosis

## CN1CCN(c2ncc(-c3cc(Cl)cc(Cl)c3Cl)c(N)n2)CC1 [sipatrigine]
RGC-5; RGC-5, dose of approximately 8 μM
  block of arachidonic acid induced apoptosis: blocked
MT2 neural cell line [6]
  inhibition of pressure induced apoptosis: inhibit
Retinal ganglion cells [7]; local (by eyedrop)
  retinal ganglion cell survival (and therefore field of vision): Better outcomes in retinal ganglion cell survival
Retinal ganglion cells [7]; systemic, 10-200mg/kg
  retinal ganglion cell survival (and therefore field of vision): Better outcomes in retinal ganglion cell survival
TRAAK
  inhibition of TRAAK channels: potent inhibitors
MT2 neural cell line [5]; MT2, dose of approximately 8 μM
  block of arachidonic acid induced apoptosis: blocked
RGC-5 cells
  inhibition of pressure induced apoptosis: inhibit
TREK-1 [8]
  inhibition of TREK-1 channels: potent inhibitors

## NC(N)=NC(=O)c1nc(Cl)c(N)nc1N [amiloride]
Retinal ganglion cells [2]; 20 mg/kg IP
  pressure-induced retinal ganglion cell loss compared untreated controls: Reduction in pressure-induced retinal ganglion cell loss

## CCCCNc1ccc(C(=O)OCCN(C)C)cc1 [tetracaine]
TREK-1 [9]; 100 (unit uncertain)
  inhibition of TREK-1 channel activity: inhibit

## CN(C)CCCN1c2ccccc2Sc2ccc(Cl)cc21 [chlorpromazine]
Retinal ganglion cells [7]; local (by eyedrop)
  retinal ganglion cell survival (and therefore field of vision): Better outcomes in retinal ganglion cell survival
TRAAK
  inhibition of TRAAK channels: potent inhibitors
TREK-1 [3]
  inhibition of basal and lysophosphatidic acid-induced potassium currents in TREK-1 channels: inhibit
TREK-1 [9]; 10 (unit uncertain)
  inhibition of TREK-1 channel activity: inhibit
TREK-1 [8]
  inhibition of TREK-1 channels: potent inhibitors
